For assay [1], the target named is T1, human IL-17A (Homo sapiens, UniProt Q16552).
T1 construct: purchased Sino Biological Inc. 12047-H07B
T1 sequence (Q16552 24-155): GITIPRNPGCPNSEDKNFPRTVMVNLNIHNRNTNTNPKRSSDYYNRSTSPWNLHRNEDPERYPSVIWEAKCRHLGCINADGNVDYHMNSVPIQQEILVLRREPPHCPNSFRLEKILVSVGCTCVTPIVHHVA
As to the kind of experiment: IL-17A enzyme-linked immunosorbent assay (competitive ELISA, IL-17A/IL-17R binding). The method, then:
The inhibition of receptor-ligand binding by human IL-17A inhibitors was quantified by competitive ELISA. 0.2 μg/mL of IL-17A (Sino Biological Inc. Cat #12047-H07B) was added in a 96-well plate at 100 μl per well for incubation for 30 min under 37° C. The 96-well plate was washed with PBST (PBS, 0.05% Tween-20) at 200 μl per well for 4 times, and then added with 200 μl of 5% skim milk and placed on a shaker for incubation at 25° C. for 30 min. The compound to be tested was prepared at 100× concentration ranging from 0.003 μM to 30 μM. After washed with PBST (PBS, 0.05% Tween-20) 4 times, the plate was added with 89 μl of PBST and 1 μl of the compound to be tested at 100× concentration followed by uniformly mixing and pre-incubation at 25° C. for 10 min. Then the plate was added with 10 μl of 16 nM IL-17R, and incubated on a shaker at 25° C. for 30 min. After washed for 4 times, the plate was added with 100 μl of anti-Fc-tag horseradish peroxidase (HRP)-conjugated antibody, and incubated on a shaker at 25° C. for 30 min. After washed 4 times, the plate was added with 100 μl of 3,3′, 5,5″-tetramethylbenzidine (TMB) substrate solution, and incubated at 25° C. in the dark. Then the plate was added with 20% HCl, followed by detection of the light absorption value at a wavelength of 450 nm by a microplate reader. The compounds prepared in the above examples were tested for human IL-17A inhibitory activity according to the above method.
(In general: ELISA stands for enzyme-linked immunosorbent assay.)

Assay [2] concerns the target T2, human IL-17A protein (Homo sapiens, UniProt Q16552).
T2 construct: purchased R&D 317-ILB
T2 sequence (Q16552 20-155 limits assumed): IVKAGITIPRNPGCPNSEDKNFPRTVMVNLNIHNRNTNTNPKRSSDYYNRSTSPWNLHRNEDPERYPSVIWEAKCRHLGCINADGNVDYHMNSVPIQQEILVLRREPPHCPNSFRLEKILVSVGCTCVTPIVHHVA
As to the kind of experiment: Inhibition of chemokine GROα/CXCL1 generation induced by human IL-17A protein in HT-29 cell. Format: cell-based. The method, then: HT-29 (Zhongyuan Gongchuang Technology Co., Ltd. of Chengdu, Sichuan) was added to a 96-well plate at 5×10^4 cells/well, and cultured overnight in a incubator at 37° C. A mixture of 30 ng/mL of human IL-17A protein (R&D, #317-ILB) and IL-17A small molecule inhibitors with gradient concentrations or 0.3 μg/mL of positive control IL-17A antibody (R&D, #AF-317-NA) was incubated at 37° C. for 1 h, and then added to the above-mentioned 96-well plate, and incubated with HT-29 cells at 37° C. for 48 hours. Then the GROα level in the cell culture supernatant was detected by an ELISA kit (Cisbio, #62HCXC1PEG) of the GROα.
According to the methods described in Experimental Examples 1 and 2, the compounds prepared in the above-mentioned examples were subjected to the experiment on inhibition of chemokine GROα/CXCL1 generation induced by human IL-17A protein in HT-29 cell.

The values below come from patent US12637430B2, “Interleukin-17 (IL-17) inhibitors” (priority 2020, dated 2026).

pIC50: −log10 of the molar value.

As to `CCc1nocc1C(=O)N[C@H](C(=O)Nc1ccc(-c2c(C)n[nH]c2C)nc1)C(C1CC1)C1CC1` [Compound 42], the pIC50 in assay [1] was 6.77.
With `Cc1nonc1C(=O)N[C@H](C(=O)Nc1ccc(-c2c(C)n[nH]c2C)nc1)C(C1CC1)C1CC1` [Compound 41], the pIC50 is 5.94 in assay [1] and 5.83 in assay [2].
For the molecule `CN1C(=O)C2(CCOCC2)c2ccc(NC(=O)[C@@H](NC(=O)c3ccnn3C)[C@H](c3ccccc3Cl)C3(C)CC3)cc21` [Compound 27], the pIC50 in assay [1] was 6.98; in assay [2] it was 5.97.
`Cc1conc1C(=O)N[C@H](C(=O)Nc1ccc(-c2c(C)n[nH]c2C)nc1)C(C1CC1)C1CC1` [Compound 44] showed a pIC50 in assay [1] of 5.56.
In the case of `Cn1nccc1C(=O)N[C@H](C(=O)Nc1ccc(C2CCOCC2)cc1)[C@H](c1ccccc1Cl)C1(C)CC1` [Compound 62], the negative logarithm of the IC50 (pIC50) in assay [1] is 7.25; in assay [2], 6.43.
In the same order, the values of `Cc1n[nH]c(C)c1-c1ccc(NC(=O)[C@@H](NC(=O)c2ccnn2C)C(C2CC2)C2CC2)cn1` [Compound 38] are 6.41 and 5.35.
In assay [1], `CC(C)N1CCN(c2ccc(NC(=O)[C@@H](NC(=O)c3ccnn3C)C(C3CCC3)C3(C)CC3)cn2)C(C)C1` (some centres unmarked) [Compound 22] showed a negative logarithm of the IC50 (pIC50) of 4.86.
For `Cc1n[nH]c(C)c1-c1ccc(NC(=O)[C@@H](NC(=O)c2ccnn2C)C(C2CCC2)C2(C)CC2)cn1` (some centres unmarked) [Compound 37], the pIC50 in assay [1] is 7.74; in assay [2], 6.59.
In assay [1], `Cn1nccc1C(=O)N[C@H](C(=O)Nc1ccc(N2CCOC[C@H]2CO)nc1)C(C1CCC1)C1(C)CC1` (some centres unmarked) [Compound 18] gave a pIC50 of 6.61.
`Cn1nccc1C(=O)N[C@H](C(=O)Nc1ccc(N2CCOCC2C2CC2)nc1)C(C1CCC1)C1(C)CC1` (some centres unmarked) [Compound 17] showed a negative logarithm of the IC50 (pIC50) in assay [1] of 6.87.
Turning to `Cn1nccc1C(=O)N[C@H](C(=O)Nc1ccc2c(c1)NC(=O)C21CCOCC1)[C@H](c1ccccc1Cl)C1(C)CC1` [Compound 26], the negative logarithm of the IC50 (pIC50) is 7.02 in assay [1] and 6.60 in assay [2].
In assay [1], `CCN1CCN(c2ccc(NC(=O)[C@@H](NC(=O)c3ccnn3C)C(C3CCC3)C3(C)CC3)cn2)[C@H](C)C1` (some centres unmarked) [Compound 21] had a pIC50 of 4.77.
Consider `CC1CN(C)CCN1c1ccc(NC(=O)[C@@H](NC(=O)c2ccnn2C)C(C2CCC2)C2(C)CC2)cn1` (some centres unmarked) [Compound 20], for which the negative logarithm of the IC50 (pIC50) in assay [1] was 5.03.
As to `C[C@@H]1CN(c2ccc(NC(=O)[C@@H](NC(=O)c3ccnn3C)C(C3CCC3)C3(C)CC3)cn2)CCO1` (some centres unmarked) [Compound 16], the pIC50 was 7.00 in assay [1] and 4.93 in assay [2].
In the same order, the values of `Cc1nocc1C(=O)N[C@H](C(=O)Nc1ccc(-c2c(C)n[nH]c2C)nc1)C(C1CC1)C1CC1` [Compound 46] are 6.95 and 6.07.
With `CC[C@@H]1COCCN1c1ccc(NC(=O)[C@@H](NC(=O)c2ccnn2C)C(C2CCC2)C2(C)CC2)cn1` (some centres unmarked) [Compound 15], the pIC50 is 7.31 in assay [1] and 5.55 in assay [2].
As to `Cc1n[nH]c(C)c1-c1ccc(NC(=O)[C@@H](NC(=O)c2ccnn2C)C(C2CC2)C2(C)CC2)cn1` (some centres unmarked) [Compound 53], the negative logarithm of the IC50 (pIC50) in assay [1] is 7.26; in assay [2], 6.33.
Turning to `CC(C)[C@@H]1COCCN1c1ccc(NC(=O)[C@@H](NC(=O)c2ccnn2C)C(C2CCC2)C2(C)CC2)cn1` (some centres unmarked) [Compound 13], the pIC50 in assay [1] is 6.19.
Take `C[C@@H]1COCCN1c1ccc(NC(=O)[C@@H](NC(=O)c2ccnn2C)C(C2CCC2)C2(C)CC2)cn1` (some centres unmarked) [Compound 10]: the pIC50 in assay [1] was 7.39; in assay [2], 5.13.
Taken in the same sequence, the figures for `Cn1nccc1C(=O)N[C@H](C(=O)Nc1ccc(C2CCOCC2)cc1)C(C1CCC1)C1(C)CC1` (some centres unmarked) [Compound 2] were 7.18 and 6.26.
For `Cc1n[nH]c(C)c1-c1ccc(NC(=O)[C@@H](NC(=O)c2ccnn2C2CC2)C(C2CC2)C2CC2)cn1` [Compound 50], the pIC50 in assay [1] was 4.55.
Regarding `Cc1nonc1C(=O)N[C@H](C(=O)Nc1cnc(-c2c(C)n[nH]c2C)c(F)c1)C(C1CC1)C1(C)CC1` (some centres unmarked) [Compound 59], the pIC50 was 7.06 in assay [1] and 5.33 in assay [2].
In the case of `CCn1nccc1C(=O)N[C@H](C(=O)Nc1cnc(-c2c(C)n[nH]c2C)c(F)c1)C(C1CC1)C1CC1` [Compound 52], the negative logarithm of the IC50 (pIC50) was 7.01 in assay [1] and 6.49 in assay [2].
As to `Cc1n[nH]c(C)c1-c1ccc(NC(=O)[C@@H](NC(=O)c2ccnn2C(C)C)C(C2CC2)C2CC2)cn1` [Compound 40], the pIC50 was 6.93 in assay [1] and 6.11 in assay [2].
Regarding `CC(C)[C@H]1COCCN1c1ccc(NC(=O)[C@@H](NC(=O)c2ccnn2C)C(C2CCC2)C2(C)CC2)cn1` (some centres unmarked) [Compound 12], the values for the pIC50 in assay [1] and in assay [2] were 7.40 and 4.87, respectively.
`Cc1nonc1C(=O)N[C@H](C(=O)Nc1ccc(-c2c(C)n[nH]c2C)nc1)C(C1CC1)C1(C)CC1` (some centres unmarked) [Compound 55]: the negative-log IC50 (pIC50) was 7.28 in assay [1] and 6.06 in assay [2].
In assay [1], `CCc1nonc1C(=O)N[C@H](C(=O)Nc1ccc(-c2c(C)n[nH]c2C)nc1)C(C1CC1)C1CC1` [Compound 43] had a pIC50 of 6.34.
For `CCn1nccc1C(=O)N[C@H](C(=O)Nc1ccc(-c2c(C)n[nH]c2C)nc1)C(C1CC1)C1(C)CC1` (some centres unmarked) [Compound 54], the figures for the pIC50 in assay [1] and in assay [2] were 7.33 and 6.62, respectively.
Consider `Cc1n[nH]c(C)c1-c1ccc(NC(=O)[C@@H](NC(=O)c2ncnn2C)C(C2CC2)C2CC2)cn1` [Compound 47], for which the pIC50 in assay [1] was 4.81.
Turning to `Cn1nccc1C(=O)N[C@H](C(=O)Nc1cnc(C2CCOCC2)c(F)c1)C(C1CCC1)C1(C)CC1` (some centres unmarked) [Compound 4], the negative logarithm of the IC50 (pIC50) in assay [1] was 7.19; in assay [2], 6.22.
In the case of `Cn1nccc1C(=O)N[C@H](C(=O)Nc1ccc2c(c1)NC(=O)C21CCOCC1)[C@H](c1ccccc1)C1(C)CC1` [Compound 25], the pIC50 in assay [1] was 7.49; in assay [2], 6.38.
`CCn1nccc1C(=O)N[C@H](C(=O)Nc1ccc(-c2c(C)n[nH]c2C)nc1)C(C1CC1)C1CC1` [Compound 39]: the negative logarithm of the IC50 (pIC50) is 6.89 in assay [1] and 6.29 in assay [2].
Regarding `Cc1n[nH]c(C)c1-c1ccc(NC(=O)[C@@H](NC(=O)c2ccnn2C(C)C)C(C2CC2)C2(C)CC2)cn1` (some centres unmarked) [Compound 56], the negative logarithm of the IC50 (pIC50) was 7.46 in assay [1] and 7.06 in assay [2].
`Cn1nccc1C(=O)N[C@H](C(=O)Nc1ccc(C(C)(C)c2nnc(C3CCC3)o2)cc1)C(C1CCC1)C1(C)CC1` (some centres unmarked) [Compound 36] gave a pIC50 in assay [1] of 5.89.
For the molecule `Cn1nccc1C(=O)N[C@H](C(=O)Nc1ccc(N2CCOCC2)nc1)C(C1CCC1)C1(C)CC1` (some centres unmarked) [Compound 8], in assay [1], the pIC50 was 6.63.
Take `Cn1nccc1C(=O)N[C@H](C(=O)Nc1ccc(C2CCOCC2)cn1)C(C1CCC1)C1(C)CC1` (some centres unmarked) [Compound 3]: the negative logarithm of the IC50 (pIC50) in assay [1] was 7.17; in assay [2], 5.80.
On to `Cn1nccc1C(=O)N[C@H](C(=O)Nc1ccc2c(c1)NC(=O)C21CCOCC1)C(C1CCC1)C1(C)CC1` (some centres unmarked) [Compound 23], for which the negative logarithm of the IC50 (pIC50) was 7.37 in assay [1] and 7.19 in assay [2].
In assay [1], `Cc1n[nH]c(C)c1-c1ccc(NC(=O)[C@@H](NC(=O)c2ccn(C3CC3)n2)C(C2CC2)C2CC2)cn1` [Compound 49] gave a pIC50 of 6.27.
With `Cc1n[nH]c(C)c1-c1ccc(NC(=O)[C@@H](NC(=O)c2nonc2C(C)C)C(C2CC2)C2CC2)cn1` [Compound 48], the pIC50 in assay [1] was 6.80; in assay [2] it was 5.52.
On to `C[C@H]1COCCN1c1ccc(NC(=O)[C@@H](NC(=O)c2ccnn2C)C(C2CCC2)C2(C)CC2)cn1` (some centres unmarked) [Compound 11], for which the pIC50 in assay [1] was 7.25; in assay [2], 4.97.
Molecule `C[C@@H]1CN(c2ccc(NC(=O)[C@@H](NC(=O)c3ccnn3C)C(C3CCC3)C3(C)CC3)cn2)CCN1` (some centres unmarked) [Compound 24] gave a negative-log IC50 (pIC50) in assay [1] of less than 4.40.
On the same count and under the same terms, with `Cc1n[nH]c(C)c1-c1ccc(NC(=O)[C@@H](NC(=O)c2nocc2C(C)C)C(C2CC2)C2CC2)cn1` [Compound 45] the figure was 6.29.

Broadly, the pIC50 is the negative decadic logarithm of the IC50, by convention in mol/L. A high value points to a low IC50.
